Test results published in patent US6190848A, “Color photographic element containing ballasted triazole derivative and inhibitor releasing coupler” (priority 1999, dated 2001).

What was measured:
[1] = Bilayer photographic element: interimage (Cg/Cb+g) and relative green sensitivity
Protocol: Bilayer photographic elements were prepared by coating the following layers on a cellulose triacetate film support (coverages are in g/m^2). Unless otherwise noted, all comparative and inventive compounds were dispersed in twice their own weight of N,N-dibutyllauramide:
Layer 1 (Antihalation Layer): black colloidal elemental silver at 0.34 and gelatin at2.41.
Layer 2 (Receiver Layer): gelatin at 2.79, CDIR-2 at 0.03, coupler M-1 (dispersed as described previously) added at 0.045, comparison material (CIEM) or IEM added at 7.2×10^-3 mmol/m^2 (this corresponds to 1.67 mmol per mole silver as AgBr or 0.96 mmol per mole of silver) dispersed in twice its own weight of N,N-dibutyllauramide and 0.81 green sensitized AgIBr tabular emulsion.
Layer 3 (Interlayer): gelatin at 0.64, ILS-1 at 0.11 and FD-1 at 0.11.
Layer 4 (Causer Layer): gelatin at 2.79, coupler Y-1 at 0.91, 0.79 blue sensitized AgIBr tabular emulsion and the DIR at 0.11 mmol/m^2.
Layer 5 (Overcoat): gelatin at 2.79 and 0.02 bis-vinylsulfonemethylether.
Samples of each element were given a stepped exposure of either green light only or blue and green light combined and processed in the KODAK FLEXICOLOR (C-41) process as described in British Journal of Photography Annual, 1988, pp196-198. Contrast of the elements was determined using the maximum slope between any two density points. In this test, the ratio of the contrast of the green only exposure to the contrast of the green of a blue and green exposure (Cg /Cb+g) is a measure of the interimage. A higher ratio means more inhibition originating from the blue and affecting the green record.
Another set of bilayer experiments were generated in a similar manner to show the effect of IEM laydown (as mmol per mol silver) and DIR variations.

[2] = Multilayer film: interimage (density change in receiver record) and relative green or blue sensitivity; settings: for Interimage B → G / Relative Green Sensitivity: IDIR-2 in blue layers
Description: Comparative examples are designated ML-C; inventive examples are designated ML-I.
Experimental Sample ML-C-0:
Layer 1 (Antihalation layer): black colloidal silver sol at 0.140; gelatin at 2.15; OxDS-1 at 0.108, DYE-1 at 0.049; DYE-2 at 0.017 and DYE-3 at 0.014.
Layer 2 (Slow cyan layer): a blend of three red sensitized (all with a mixture of RSD-1 and RSD-2) silver iodobromide emulsions: (i) a large sized tabular grain emulsion (1.3×0.118, 4.1 mole % I) at 0.522 (ii) a smaller tabular emulsion (0.85×0.115, 4.1 mole % I) at 0.337 and (iii) a very small tabular grain emulsion (0.55×0.115, 1.5 mole % I) at 0.559; gelatin at 2.85; cyan dye-forming coupler C-1 at 0.452; CDIR-1 at 0.043; bleach accelerator releasing coupler B-1 at 0.054 and anti-foggant 4-hydroxy-6-methyl-1,3,3a,7-tetraazaindene at 0.016.
Layer 3 (Fast cyan layer): a red-sensitized (same as above) tabular silver iodobromide emulsion (2.2×0.128, 4.1 mole % I) at 0.086; cyan coupler C-1 at 0.081; CDIR-1 at 0.034; MC-1 at 0.043; gelatin at 1.72 and anti-foggant 4-hydroxy-6-methyl-1,3,3a,7-tetraazaindene at 0.010.
Layer 4 (Interlayer): gelatin at 1.29.
Layer 5 (Slow magenta layer): a blend of two green sensitized (both with a mixture of GSD-1 and GSD-2) silver iodobromide emulsions: (i) 0.54×0.091, 4.1 mole % iodide at 0.194 and (ii) 0.52×0.085, 1.5 mole % iodide at 0.559; magenta dye forming coupler M-1 at 0.24, gelatin at 1.08 and anti-foggant 4-hydroxy-6-methyl-1,3,3a,7-tetraazaindene at 0.005.
Layer 6 (Mid magenta layer): a blend of two green sensitized (same as above) tabular silver iodobromide emulsions (i) 1.3×0.113, 4.1 mole % I at 0.430 and (ii) […], 4.1 mole % I at 0.172; magenta dye forming coupler M-1 at 0.065; MC-2 at 0.015; IDIR-5 at 0.016; gelatin at 2.12 and anti-foggant 4-hydroxy-6-methyl-1,3,3a,7-tetraazaindene at 0.003.
Layer 7 (Fast magenta layer): a green sensitized tabular silver iodobromide (1.8×0.127, 4.1 mole % I) emulsion at 0.689; gelatin at 1.61; magenta dye forming coupler M-1 at 0.043; MC-2 at 0.054 and CDIR-2 at 0.003.
Layer 8 (Yellow filter layer): gelatin at 0.86; Carey-Lea silver at 0.043 and OxDS-2 at 0.054.
Layer 9 (Slow yellow layer): an equal blend of three blue sensitized (all with YSD-1) silver iodobromide emulsions (i) 0.50×0.085, 1.5 mole % I (ii) 0.60 diameter 3-D, 3% mole I and (iii) 0.68 diameter 3-D, 3 mole % I at a total of 0.430; yellow dye forming coupler Y-2 at 0.699; yellow dye forming coupler Y-3 at 0.215; IDIR-2 at 0.086; C-1 at 0.097 and gelatin at 2.066.
Layer 10 (Fast yellow layer): two blue sensitized (with YSD-1) silver iodobromide emulsions (i) 3.1×0.137 tabular, 4.1 mole % I at 0.396 (ii) 0.95 diameter 3-D, 7.1 mole % I at 0.47; Y-2 at 0.131; Y-3 at 0.215; IDIR-2 at 0.075; C-1 at 0.011; B-1 at 0.008 and gelatin at 1.08.
Layer 11 (Protective overcoat and UV filter layer): gelatin at 1.61; silver bromide Lippman emulsion at 0.215; UV-1 and UV-2 (1:1 ratio) at a total of 0.023 and bis(vinylsulfonyl)methane hardener at 1.6% of total gelatin weight.
Surfactants, coating aids, emulsion addenda. sesquestrants, lubricants, matte and tinting dyes were added to the appropriate layers as is common in the art. The following describes the composition of each particular experimental coating based on ML-C-0:
ML-C-1: Like ML-C-0, but IDIR-6 replaces IDIR-2 in layers 9 and 10 at equimolar levels.
ML-C-2: Like ML-C-0, but IDIR-1 replaces IDIR-5 in layer 6 at 0.032.
ML-I-0: Like ML-C-0, but IEM-A added at 3×10^-4 in layer 5, 2×10^-4 in layer 6 and 2.9×10^-4 in layer 7.
ML-I-1: Like ML-C-0, but IEM-A added at 3×10^-3 in layer 5, 2×10^-3 in layer 6 and 2.9×10^-3 in layer 7.
ML-I-2: Like ML-C-0, but IEM-A added at 3×10^-2 in layer 5, 2×10^-2 in layer 6 and 2.9×10^-2 in layer 7.
ML-I-3: Like ML-C-0, but IEM-A added at 1.6×10^-3 in layers 9 and 10.
ML-I-4: Like ML-C-1, but IEM-A added at 1.6×10^-3 in layers 9 and 10.
ML-I-5: Like ML-C-2, but IEM-A added at 1.6×10^-3 in layers 9 and 10. […]

[3] = Table III BL-23: laydown 0.96 mmol per mol silver, IDIR-2 in blue
[4] = Table III BL-24: laydown 9.6 mmol per mol silver, IDIR-2 in blue
[5] = Table III BL-26: laydown 0.96 mmol per mol silver, IDIR-6 in blue
[6] = Table III BL-27: laydown 9.6 mmol per mol silver, IDIR-6 in blue
[7] = Table IV ML-I-0: 0.14 mmol IEM-A/mol silver in layers 5, 6, 7
[8] = Table IV ML-I-1: 1.4 mmol IEM-A/mol silver in layers 5, 6, 7
[9] = Table IV ML-I-2: 14 mmol IEM-A/mol silver in layers 5, 6, 7
[10] = Table V ML-I-3: IEM in blue layer, IDIR-2 in blue, IDIR-5 in green
[11] = Table V ML-I-4: IEM in blue layer, IDIR-6 in blue, IDIR-5 in green
[12] = Table V ML-I-5: IEM in blue layer, IDIR-2 in blue, IDIR-1 in green
[13] = Table V ML-I-6: IEM in blue layer, IDIR-6 in blue, IDIR-1 in green

## CCC(C)(C)c1ccc(OCCCCNC(=O)c2ccc3[nH]nnc3c2)c(C(C)(C)CC)c1 [IEM-A]
[1]; Table II, IDIR-2 in blue layer, IEM or CIEM at 7.2×10^-3 mmol/m^2
  Cg /Cb+g (interimage ratio): 1.65
[1]; [3]
  Cg /Cb+g (interimage ratio): 1.95
  Relative Green Sensitivity: 0.95
[1]; [4]
  Cg /Cb+g (interimage ratio): 1.62
  Relative Green Sensitivity: 0.82
[1]; [5]
  Cg /Cb+g (interimage ratio): 1.33
  Relative Green Sensitivity: 0.96
[1]; [6]
  Cg /Cb+g (interimage ratio): 1.59
  Relative Green Sensitivity: 0.89
[2]; [7]
  Interimage B → G: -0.041
  Relative Green Sensitivity: 0.99
[2]; [8]
  Interimage B → G: -0.100
  Relative Green Sensitivity: 0.96
[2]; [9]
  Interimage B → G: -0.097
  Relative Green Sensitivity: 0.82
[2]; [10]
  Interimage G → B: -0.154
  Relative Blue Sensitivity: 0.98
[2]; [11]
  Interimage G → B: -0.155
  Relative Blue Sensitivity: 0.97
[2]; [12]
  Interimage G → B: -0.202
  Relative Blue Sensitivity: 0.98
[2]; [13]
  Interimage G → B: -0.243
  Relative Blue Sensitivity: 0.96
